In patent US20040058852A1, “Use of gap-junction blockers in neurodegenerative disease” (priority 2002, published 2004):
“Also recorded” adds a separate entry of the source.

Key:
newborn infants = newborn infants or heart surgery using deep hypothermic circulatory arrest; cited from earlier work
[1] = test system: secondary edema following focal hypoxic-ischemic insult; details: experimental animal models; cited from earlier work
[2] = test system: neonatal rats with seizures following intrauterine HI insults; test: Behavioral and electrographic (EEG) seizures after intrauterine hypoxic-ischemia; assay type: in vivo, rat; set-up: ischemic pups that died: dose or concentration left out as unconfirmed; details: for behavioral seizures following HI insults: i.p. at the onset of motor seizures; for electrographic seizures (EEG epileptiform activity): i.p., EEG 40 min after administration, one pup
Source text: Rat pups were delivered by C-section. One group was subjected to intra-uterine hypoxic-ischemia, the control group was also delivered by caesarian-section but not subjected to a period of hypoxic-ischemia.
Surviving animals in all groups were examined neuropathologically at 21 days following delivery (P21).

[3] = test system: gap junction coupling in hippocampal slice cultures; test: Fluorescence recovery after photobleaching (FRAP) in CA1 fields of hippocampal slice cultures; assay type: cell-based, Sprague-Dawley rat; set-up: dose or concentration left out as unconfirmed
Procedure: Fluorescence recovery in CA1 fields of hippocampal slice cultures was evaluated as in Wade et al., 1986. Hippocampal slice cultures were loaded by 45 min application of carboxyfluorescein diacetate (30 μM). CA1 fields of view were photobleached for 2 min using the 488 nm laser line of a confocal microscope (Nikon RCM 8000) and images acquired at low power at 1 min intervals thereafter. Quantitative image analysis was performed using Polygon-Star software (Nikon).

[4] = intraperitoneal and subcutaneous injections; cited from earlier work
[5] = test system: CA1 pyramidal neurons in organotypic hippocampal slice cultures; assay type: cell-based, Sprague-Dawley rat
Procedure: Organotypic hippocampal slice cultures were prepared from 9- to 12-day old Sprague-Dawley rat pups (Charles River, Wilmington, Del.) of both sexes (Stoppini et al., 1991). Rats were decapitated under deep ketamine anesthesia, the hippocampi rapidly dissected out and placed immediately into ice-cold dissection medium containing: 3.5 mM KCl, 0.5 mM NaH2PO4, 10 mM MgSO4, 5 mM NaHCO3, 118 mM n-methyl-D-glucosamina, 1.1 mM KH2PO4, 10 mM HEPES, 20 mM D-glucose, pH 7.35, gassed with 95% O2/5% CO2. Transverse slices of hippocampus plus entorhinal cortex were cut using a spring-loaded grid of 20 μm diameter wires spaced 400 μm apart. Slices were immediately transferred into dissection medium, separated and placed on semi-permeable membrane tissue culture inserts (Millipore Corporation, Bedford, Mass.) in a 6-well plate, each well containing 1 ml of culture medium (50% Minimum Essential Medium, 25% Hank's balanced salt solution, 25% heat-inactivated horse serum, 13 mM HEPES, 2.5 mg/ml glucose). Cultures were maintained at 35° C. in a humidified 5% CO2 incubator and medium was changed every 2-3 days.
After 6-10 days in culture, hippocampal slice cultures were exposed to hypoxia-ischemia (HI) by transient oxygen and glucose deprivation. Slices were transferred into another six-well plate containing 1 ml of Ringermannitol glucose-free medium per well, containing 1.25 mM CaCl2, 0.9 mM MgSO4, 5.4 mM KCl, 0.44 mM KH2PO4, 137 mM NaCl, 4.2 mM NaHCO3, 0.35 mM NaH2PO4, 16.7 mM HEPES, and 27.5 mM mannitol, and placed in a hypoxic box continuously gassed with 95% N2/5% CO2 for 45 min. They were then returned to normal medium with carbon dioxide until measurement of neuronal death.
Carbenoxolone (disodium salt) was purchased from Sigma (St. Louis, Mo.), propidium iodide and carboxyfluorescein diacetate from Molecular Probes (Eugene, Oreg.). Cleaved caspase-3 antibody was purchased from Cell Signaling (Beverly, Mass.).
Media containing 1 μM PI was applied for 10 min to slices and PI-labeled dead cells imaged using […] filters. IPLab (Signal Analytics Corp.) and NIH image analysis programs were used to quantitate total fluorescence intensity for equal regions of interest within the CA1 pyramidal cell body layer (stratum pyramidale).

[6] = test system: rat pups subjected to intrauterine hypoxic-ischemia; test: Intrauterine hypoxic-ischemia (transient global anoxia during C-section delivery): survival, growth, histopathology; assay type: in vivo; details: for survived reperfusion / mortality: 75 mg/Kg
Procedure: Sprague Dawley fetuses were subjected to transient global anoxia during C-section delivery (Bjelke et al., 1991; Brake et al., 1997). Pregnant rats at term (21 days gestation) were decapitated, the abdomen incised, and the uterus was quickly isolated from its blood supply and surrounding fat tissue and connective tissue. Acute anoxia was induced by immersing the intact uterus containing the fetuses into 37° C. saline for 12.5-15 min. […] Blood gases and pH Samples were analyzed for blood gases and pH on a blood gas monitor (RapidLab 855, Bayer,UK).
Animals were deeply anesthetized with ketalar and perfused via a transcardiac site after which brains were removed, rinsed with saline and fixed in formaldehyde buffered to pH 7.35. Brains were cut into sagittal sections, sliced in 2 mm cross-sections (Braintree Scientific Inc, Mass.), dehydrated with a tissue processor (TP1050, Leica Instruments, Germany), embedded in paraffin, sectioned with a Leica freezing microtome, and stained with haematoxylon-eosin.
Groups were compared by ANOVA or Student's t-test, as appropriate, with group size pre-selected based on P<0.05 significance criterion.

[7] = test system: synaptic transmission in CA1 stratum radiatum of hippocampal slice cultures; test: Schaffer collateral-evoked excitatory postsynaptic potentials in slice cultures 24 hr post-HI; assay type: cell-based, Sprague-Dawley rat; details: 75 μM, 45 min HI
Procedure: Organotypic hippocampal slice cultures were prepared from 9- to 12-day old Sprague-Dawley rat pups (Charles River, Wilmington, Del.) of both sexes (Stoppini et al., 1991). Rats were decapitated under deep ketamine anesthesia, the hippocampi rapidly dissected out and placed immediately into ice-cold dissection medium containing: 3.5 mM KCl, 0.5 mM NaH2PO4, 10 mM MgSO4, 5 mM NaHCO3, 118 mM n-methyl-D-glucosamina, 1.1 mM KH2PO4, 10 mM HEPES, 20 mM D-glucose, pH 7.35, gassed with 95% O2/5% CO2. Transverse slices of hippocampus plus entorhinal cortex were cut using a spring-loaded grid of 20 μm diameter wires spaced 400 μm apart. […]
Slice cultures were placed in an interface recording chamber between artificial cerebrospinal fluid (ACSF; perfusion rate 3 ml/min) and a humidified atmosphere of 95% O2/5% CO2. […] Extracellular excitatory postsynaptic potentials (EPSPs) were recorded (2 M NaCl-filled electrodes) in stratum radiatum and elicited by bipolar Schaffer collateral stimulation (intensities 20-200 μA), recorded using an Axopatch 200A amplifier in current-clamp mode.

caspase-3 = test: Western blot of activated caspase-3 in whole brain 24 hr after intrauterine HI; assay type: in vivo, rat; details: for HI-induced increase of activated caspase-3 in whole brain: 75 mg/kg i.p. immediately after HI, 24 hr
Procedure: Protein was extracted from whole-brain 24 hr following HI and concentration determined with a BCA Protein Assay Kit (Pierce, Rockford, Ill.). Twenty-five μg protein/sample was applied per lane and separated by electrophoresis in 10% or 10-20% SDS-polyacrylamide gels (BioRad, Hercules, Calif.) and transferred to nitrocellulose membranes (Schleicher and Schuell, Keene, N.H.). Membranes were blotted […] with cleaved caspase-3 ([…]) antibody (1:700) overnight at 4° C., and then incubated in horseradish peroxidase-conjugated anti-rabbit IgG 1:1500. […] As an internal control, glyceraldehyde-3-phosphate dehydrogenase (GAPDH) was blotted with horseradish peroxidase-conjugated goat antimouse IgG at a concentration of 1:4000. Densitometriy of chemiluminescent bands was quantified using Scion Image densitometer software (NIH), and band densities normalized to GAPDH density in the same gel.

infarcts after stroke = details: applied before the induction of stroke; cited from earlier work
[8] = test system: brain damage in immature fetuses and newborn infants; details: randomized double-blind trials; cited from earlier work
[9] = i.p. to newborn rats at least 15 min after HI

In the case of `Oc1ncnc2[nH]ncc12` [Allopurinol], the “outcome in clinical trials” value (newborn infants) is given as “has not been successful” and the “severity of secondary edema” value [1] is given as “reduced”.

In the case of `CC1(C)[C@@H](OC(=O)CCC(=O)O)CC[C@]2(C)[C@H]3C(=O)C=C4[C@@H]5C[C@@](C)(C(=O)O)CC[C@]5(C)CC[C@@]4(C)[C@]3(C)CC[C@@H]12` [carbenoxolone, Carbenoxolone], the “behavioral seizures following HI insults” value [2] is reported as “absence of seizures; also recorded: abolishes”, the “behavioral seizures following HI insults” value ([2]; listed as Carbenoxolone) is reported as “stopped” and the “electrographic seizures (EEG epileptiform activity)” value [2] is reported as “loss of electrographic epileptiform activity; also recorded: abolishes”. For the same molecule, the “electrographic seizures (EEG epileptiform activity)” value ([2]; listed as Carbenoxolone) was “stopped”, the “ischemic pups that died” value ([2]; treated with carbenoxolone) was “One of 12” and the “gap junction coupling in slice cultures” value [3] was “effective at reducing gap junction coupling”. For the same molecule, the “crossing of normoxic foeto-placental and adult blood-brain barriers” value [4] was “has been shown to cross”, the “viability or morphology of control organotypic slice cultures” value [5] was “did not detectably alter” and the “neuroprotection when applied in vitro” value ([5]; 75 μM) was “marked neuroprotection”. For the same molecule, the “delayed death of CA1 pyramidal neurons assessed by PI staining intensity” value ([5]; 75 μM added 30 min prior to, during and 60 min after a 45 min HI insult, 24 hr following HI) was “markedly reduced”, the “PI fluorescence 24 hr post-HI in hippocampal slice culture” value ([5]; 75 μM, 60 min after the end of the HI episode (FIG. 2c)) was “reduced PI fluorescence” and the survived reperfusion ([6]; 4 hrs) was 76.5±9%. It also gave a mortality ([6]; 4 hrs of reoxygenation/recirculation after perinatal HI) of 23.5%, a survived reperfusion ([6]; 24 hrs) of 73±9.5% and a mortality ([6]; 24 hrs after perinatal HI) of 27%. The survived reperfusion ([6]; 48 hrs) was 70±12.5%, the mortality ([6]; 48 hrs after perinatal HI) was 30% and the cerebellar damage ([6]; 75 mg/kg i.p. after intrauterine HI) was “preventing cerebellar damage”. The “extent of histopathological damage in the hippocampus and neocortex” value ([6]; 75 mg/kg i.p. after intrauterine HI, n=5) was “dramatically reduced”, the “long-term development assessed by size” value ([6]; 75 mg/kg immediately after intrauterine HI, compared to HI alone (FIG. 3d)) was “improves” and the survival rate ([6]; 21 days post-HI) was 70±12%. For the same molecule, the “crossing of the blood-brain barrier” value [6, 9] was “cross the blood-brain barrier in sufficient time and concentration”, the “long-term damage induced by HI” value [6, 9] was “markedly reduce” and the body weight ([6]; postnatal day 21, HI rats) was 29.2 ± 3 g. The “protection against loss of synaptic transmission in CA1 stratum radiatum (EPSP)” value [7] was “very effective”, the “HI-induced increase of activated caspase-3 in whole brain” value (caspase-3) was “largely prevented” and the “HI-induced increase of activated caspase-3 in whole brain” value (caspase-3; listed as Carbenoxolone) was “reduced the activation”. For the same molecule, the “activation of caspase-3, reduced to” value (caspase-3; 75 mg/kg i.p. immediately after perinatal HI, 24 hr post-HI, relative to HI alone) was 43±15% and the “caspase-3 band densities (normalized to GAPDH)” value (caspase-3; HI+Carb, 75 mg/kg i.p., 24 hr post-HI) was 302±115.

In the case of `CCCCCCCCO` [octanol], the infarct size (infarcts after stroke) is given as “reduced infarct size; also recorded: reduce the size of infarcts”.

In the case of `O=S(=O)([O-])[O-].[Mg+2]` [magnesium sulfate], the “protective effect against brain damage” value [8] is given as “did not provide a protective effect”.
